Laboratory results from patent publication US9176114B2, “Cell culture model for acquired chemoresistance of chronic myelogenous leukemia and related methods for identifying agents to overcome resistance” (CITY OF HOPE, priority 2007, dated 2015).
Entries after “also recorded” stand apart in the source; their conditions may differ. Each block holds one compound with its values, some of them ahead of it.

How the values were obtained:
[1] = test system: KCL-22 cells; experiment: Resistance assay: relapse of KCL-22 cells in prolonged liquid culture (CML acquired resistance model); assay type: cell-based, human; conditions: for relapse of KCL-22 cells on 5 μM STI-571 in combination / cell death by the inhibitor alone: 300 μM splitomicin or 15 mM nicotinamide; for cell death by the inhibitor alone: first two weeks; for relapse of KCL-22 cells on imatinib (STI-571) in combination with the inhibitor: prolonged culture
Source text: (§1) Cells were maintained in these cultures without changing medium.
Cells were maintained in these cultures without changing medium. Aliquots of cells were taken out at specified time points and cell numbers counted using a hematocytometer. Cell viability was accessed by trypan blue exclusion where necessary.

[2] = molecular target: T1, SIRT1 (Homo sapiens, UniProt Q96EB6); experiment: FRET-based SIRT1 inhibition assay; conditions: All compounds in 50 μM
T1 sequence (Q96EB6 1-747): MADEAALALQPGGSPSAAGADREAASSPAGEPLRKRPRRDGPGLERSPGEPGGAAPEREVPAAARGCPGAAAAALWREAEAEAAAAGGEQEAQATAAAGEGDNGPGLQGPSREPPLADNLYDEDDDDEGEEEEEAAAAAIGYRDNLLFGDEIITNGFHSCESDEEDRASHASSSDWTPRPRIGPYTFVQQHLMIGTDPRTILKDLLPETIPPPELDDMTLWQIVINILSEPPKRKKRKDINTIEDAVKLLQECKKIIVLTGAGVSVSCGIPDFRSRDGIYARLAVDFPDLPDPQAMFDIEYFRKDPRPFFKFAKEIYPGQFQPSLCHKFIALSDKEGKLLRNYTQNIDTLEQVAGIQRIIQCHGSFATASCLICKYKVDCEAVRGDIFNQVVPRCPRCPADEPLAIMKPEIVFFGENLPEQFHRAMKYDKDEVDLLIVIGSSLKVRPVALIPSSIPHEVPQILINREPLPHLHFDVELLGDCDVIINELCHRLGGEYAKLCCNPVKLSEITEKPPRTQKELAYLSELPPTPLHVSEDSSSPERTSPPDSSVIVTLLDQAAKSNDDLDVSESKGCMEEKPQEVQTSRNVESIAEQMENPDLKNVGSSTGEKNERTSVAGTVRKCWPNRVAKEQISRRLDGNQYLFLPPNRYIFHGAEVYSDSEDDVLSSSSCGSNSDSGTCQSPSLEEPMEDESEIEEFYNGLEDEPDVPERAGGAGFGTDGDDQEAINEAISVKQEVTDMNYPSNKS

[3] = test system: FOXO1; experiment: Flow cytometry assay of acetylation of FOXO1 in KCL-22 cells; assay type: cell-based, human; conditions: compound treatment for 24 h
Procedure: SIRT1 inhibitor-induced acetylation of cellular SIRT1 substrates, Ku70 and FOXO proteins, are determined by immunoprecipitation of these proteins followed by Western blot analysis for acetyl lysine. Acetylation of FOXO1 is also directly examined by flow cytometry-based analysis as done in FIG. 40D.

[4] = test system: SD1 cells; experiment: Resistance assay in BCR-ABL positive ALL cells; assay type: cell-based, human; conditions: 50 μM sirtinol alone or in combination with STI-571, prolonged culture
Procedure: as §1
The ability of sirtinol and imatinib to block resistance related to BCR-ABL mutations and non-mutants was determined in acute lymphocytic leukemia (ALL) cells.

[5] = test system: KCL-22M cells
Procedure: Cell cycle was analyzed by fixing cells with 70% ethanol at −20° C. overnight. After washing, cells were resuspended in phosphate-buffered saline containing 1 mg/ml RNase A, incubated for 30 min at 37° C., and then stained with propidine iodine (50 μg/ml) for 30 min at room temperature before flow cytometry analysis. Cell proliferation was analyzed using a XTT Cell Proliferation kit (Roche Applied Science), and apoptosis was analyzed with annexin V kit (BD Pharmingen) as per the manufacturer's instruction.

[6] = test system: K562 cells; experiment: Growth factor-induced transient resistance (serum-free medium, basic supplements, insulin); assay type: cell-based, human
Procedure: (A) Growth curves of K562 cells in serum medium, and serum-free medium supplied with basic supplements containing 5 μg/ml insulin and 5 μg/ml transferrin (basic) with or without 75 ng/ml EGF, 25 μg/ml HDL or both (EH). […] Relative survival of imatinib treated cells was calculated by comparison to no drug treatment. Pre-incubation for two days renders resistance. […] Since sirtinol is insoluble in SF medium, HDL 25 μg/ml was added to help dissolve the drug. (D) Effects of basic supplements in serum medium. […] Viable cells were counted one and three days after the treatment. […] (F) Effects of insulin in resistance.
Whether serum-free medium supplied with select growth factors provides a better culture environment for developing CML chemoresistance was determined. Serum-free (SF) medium with insulin, transferring, epidermal growth factor (EGF) and high density lipoprotein (HDL) was used. SF medium with the basic supplements (5 μg/ml insulin and 5 μg/ml transferring) was sufficient to support growth of both K562 cells (FIG. 13A) and KCL-22 cells. […] Sirtinol is able to overcome CML resistance in SF culture.
Transient resistance conferred by insulin and transferrin supplement is of interest as insulin receptor is overexpressed in about 90% primary CML cells. The key insulin downstream target phosphatidylinositol-3 kinase (PI3K) is required for BCR-ABL mediated transformation and inhibition of PI3K-Akt-mTor pathway has been explored to overcome CML chemoresistance. SIRT1 is a key gene for regulating insulin secretion and directly regulates Akt downstream target FOXO proteins through deacetylation. Therefore, the effect of insulin itself for transient resistance to imatinib and the response of sirtinol treatment were examined.

[7] = test system: KCL-22 cells; experiment: Cell growth, apoptosis (annexin V) and cell cycle analysis; assay type: cell-based, human
Procedure: (§2) One half million cells per well were seeded in a 24-well plate and at 2 and 4 days after initiation of drug treatment, surviving cells were counted (A, B). […] The percentage of annexin V positive cells including early and late apoptotic cells was plotted underneath FACS charts.
(§3) Cell apoptosis was analyzed with annexin V kit (BD Pharminggen) as per the manufacturer's instruction.

[8] = test system: K562 cells; experiment: as above; assay type: cell-based, human
Procedure: as §2, §3

[9] = Solubility; assay type: physicochemical
[10] = test system: Aurora A; experiment: Expression of Aurora kinases by Western blot in KCL-22M cells; assay type: cell-based, human; conditions: two days of drug treatment
[11] = test system: HIC1; experiment: HIC1 expression / SIRT1 level after HDAC and DNMT inhibitors; assay type: cell-based, human; conditions: KCL-22 cells, alone or in combination
Source text: Total cellular RNA with Trizol (Invitrogen) using a standard protocol. First strand DNA was synthesized and HIC1 expression by quantitative real-time RT-PCR using a kit with SYBR Green label (Invitrogen) as per the manufacture's instruction on a BioRad machine OPTICON. The following are the HIC1 primers (spanning introns), 5′-[…]-3′(exon 1a) and 5′-[…]-3′ (Exon 2). [>ref|NT—010718.15|Hs17—10875:1561637-1565694 Homo sapiens chromosome 17 genomic contig, reference assembly]
SIRT1 expression was analyzed by Western blot using 1:5000 diluted rabbit monoclonal SIRT1 antibody (Epitomics). Controls used were GAPDH or actin as loading controls with rabbit anti-GAPDH (Trevigen) or anti-actin (Sigma) at 1:5000 dilution. GAPDH [>ref|NT—009759.15|Hs12—9916:6497433-6502281 Homo sapiens chromosome 12 genomic contig, reference assembly] primers used are as follows: […]

[12] = test system: BCR-ABL mutants; conditions: cited from earlier work
[13] = test system: CML patients with T315I mutation; conditions: human, in vivo; cited from earlier work
[14] = 50 μM sirtinol with 1 μM STI-571
[15] = two days treatment, PI staining

SMILES: O=C1CCc2c(ccc3ccccc23)O1 [splitomicin]
relapse of KCL-22 cells on 5 μM STI-571 in combination [1]: effectively blocked; also recorded: blocked relapse | cell death by the inhibitor alone [1]: did not, by themselves, induce significant cell death | relapse of KCL-22 cells on imatinib (STI-571) in combination with the inhibitor [1]: blocks relapse

SIRT1 inhibition in FRET-based biochemical assay [2]: outperformed sirtinol and tenovin-6
SMILES: O=C(NN=Cc1c(O)ccc2ccccc12)c1ccncc1 [compound 22, N′-((2-hydroxyl-1-naphthyl)methylene)isonicotinohydrazide]
acetylation of FOXO1 [3]: outperformed sirtinol and tenovin-6 | inhibitory activity (block of CML relapse) compared with compound 163580 [1]: better inhibitory activity than 163580

SMILES: CC(NC(=O)c1ccccc1/N=C/c1c(O)ccc2ccccc12)c1ccccc1 (centres unmarked) [sirtinol]
effect of sirtinol on SD1 cells [4]: eliminated these cells | cell death of KCL-22M cells, combination ([5]; 50 μM sirtinol with 1 μM AZA): induced partial cell death | growth of KCL-22M cells, combination ([5]; sirtinol (50 μM) with STI-571 ([…])): able to inhibit cell growth | transient resistance to 1 μM STI-571 from basic supplements in serum medium ([6]; 50 μM sirtinol): abolished this transient resistance | transient resistance to 1 μM STI-571 from insulin ([6]; sirtinol alone or in combination with STI-571): abolished this transient resistance | cell killing in SF culture ([6]; sirtinol alone or with STI-571, K562 and KCL-22 cells, no relapse): rapid killing | cell growth ([7]; 50 μM sirtinol alone): inhibited the growth | growth inhibition, combination [7, 14]: synergized their inhibitory effects | apoptosis (annexin V) ([7]; sirtinol alone): significantly induced annexin V positive apoptotic cells | apoptosis (annexin V), combination ([7]; sirtinol combined with STI-571): induced more dramatic apoptosis than each individual drug | cell cycle [7, 15]: reducing S/G2 and increasing sub-G1 population | cell growth ([8]; 50 μM sirtinol alone): inhibited the growth | growth inhibition, combination [8, 14]: synergized their inhibitory effects | apoptosis (annexin V) ([8]; sirtinol alone): significantly induced annexin V positive apoptotic cells | apoptosis (annexin V), combination ([8]; sirtinol combined with STI-571): induced more dramatic apoptosis than each individual drug | cell cycle [8, 15]: rapidly increased sub-G1 and apoptotic fraction | effective concentration in vivo (limited by solubility) [9]: not obtainable in vivo | solubility in SF medium ([9]; serum-free medium): insoluble | recurrence on nilotinib or dasatinib in combination with SIRT1 inhibitor [1]: effectively blocked the recurrence | relapse on 1 μM Dasatinib in combination with sirtinol [1]: blocked relapse | relapse on […] Nilotinib in combination with SIRT1 inhibitor [1]: blocked relapse | relapse on sirtinol alone ([1]; 50 μM sirtinol alone): resulted in relapse after two weeks | relapse of KCL-22 cells on imatinib (STI-571) in combination with the inhibitor [1]: blocks relapse | relapse of KCL-22 cells on imatinib (STI-571) in combination with the inhibitor ([1]; listed as Sirtinol): blocked relapse at all dosages of STI-571 | Aurora A protein in KCL-22M cells [10]: degraded

SMILES: Nc1ncn([C@H]2C[C@H](O)[C@@H](CO)O2)c(=O)n1 [AZA, 5-aza-2-deoxycytidine]
growth of KCL-22M cells ([5]; 1 μM inhibitor): inhibited its growth but did not promote significant cell death | reactivation of HIC1 expression / reduction of SIRT1 level [11]: could not reactivate HIC1 expression or reduce SIRT1 level | relapse on AZA plus STI-571 ([1]; 1 μM AZA with STI-571): did successfully block relapse on 2.5 and 5 μM; also recorded: blocked relapse at 2.5 and 5 μM of STI-571

SMILES: Cc1cn(-c2cc(NC(=O)c3ccc(C)c(Nc4nccc(-c5cccnc5)n4)c3)cc(C(F)(F)F)c2)cn1 [Nilotinib]
BCR-ABL mutants inhibited [12]: inhibits most of the known mutants with the exception of the T315I mutation

SMILES: Clc1ccc2nc(CCSCCc3nc4ccc(Cl)cc4[nH]3)[nH]c2c1 [compound 628445]
prevention of CML cell relapse upon imatinib compared with sirtinol (50 μM) [1]: more effective in preventing CML cell relapse upon imatinib treatment than an effective dose of sirtinol

SMILES: CCN(C(C)=O)c1cnc(C=NNC(N)=S)c2ccccc12 [compound 687305]
prevention of CML cell relapse upon imatinib compared with sirtinol (50 μM) [1]: more effective in preventing CML cell relapse upon imatinib treatment than an effective dose of sirtinol

SMILES: COc1ccc2nc3cc(Cl)ccc3c(NCCCCN3CCCC3)c2n1.Cl.Cl.Cl [compound 261408]
prevention of CML cell relapse upon imatinib compared with sirtinol (50 μM) [1]: more effective in preventing CML cell relapse upon imatinib treatment than an effective dose of sirtinol | toxicity to cells [1]: too toxic to cells

SMILES: CC(=O)N[C@@H](CS)C(=O)O [NAC, N-acetylcysteine]
cytotoxicity ([1]; 50 mM NAC): significant cytotoxicity

SMILES: NC(=O)c1cccnc1 [nicotinamide]
lowest dose that blocked relapse on imatinib [1]: 1 µM | relapse of KCL-22 cells on 5 μM STI-571 in combination [1]: effectively blocked; also recorded: blocked relapse | cell death by the inhibitor alone [1]: did not, by themselves, induce significant cell death | relapse of KCL-22 cells on imatinib (STI-571) in combination with the inhibitor [1]: blocks relapse

SMILES: Cc1cc(Nc2cc(N3CCN(C)CC3)nc(Sc3ccc(NC(=O)C4CC4)cc3)n2)n[nH]1 [VX-680]
inhibition of T315I BCR-ABL [12]: potently inhibits | clinical response [13]: Three CML patients with T315I mutation responded

SMILES: Oc1ccc2ccccc2c1C1=NNc2n[nH]c(=S)n2N1 [compound 163580]
prevention of CML cell relapse upon imatinib compared with sirtinol (50 μM) [1]: more effective in preventing CML cell relapse upon imatinib treatment than an effective dose of sirtinol

SIRT1 inhibition in FRET-based biochemical assay [2]: outperformed sirtinol and tenovin-6
SMILES: CC(=NNC(=O)c1ccncc1)c1ccc2ccccc2c1O [compound 24, N′-(1-(1-hydroxy-2-naphthyl)ethylidene)isonicotinohydrazide]
acetylation of FOXO1 [3]: outperformed sirtinol and tenovin-6 | inhibitory activity (block of CML relapse) compared with compound 163580 [1]: better inhibitory activity than 163580
